Source: PubChem BioAssay (NCI)
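Exposure lasted 48 hours, with cells grown in 96-well plates and compounds tested at five concentrations. Definition used: TGI = concentration required for complete inhibition of growth.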

Columns and labels:
Experiment in all cases: NCI-60 cell line screen, 48 h
[1] = test system: LXFL 529 NSCLC
[2] = test system: SN12C renal
[3] = test system: MALME-3M melanoma
[4] = test system: SR leukemia
[5] = test system: A498 renal
[6] = test system: DMS 114 small cell lung
[7] = test system: TK-10 renal
[8] = test system: PC-3 prostate
[9] = test system: CAKI-1 renal
[10] = test system: SF-268 CNS

Compound	TGI [1] [µM]	TGI [2] [µM]	TGI [3] [µM]	TGI [4] [µM]	TGI [5] [µM]	TGI [6] [µM]	TGI [7] [µM]	TGI [8] [µM]	TGI [9] [µM]	TGI [10] [µM]
O=C(c1ccc(F)cc1)c1cccc(C(=O)c2ccc(F)cc2)n1	> 100	> 56.2	> 100	> 100	> 100	96.4	69.3	> 100	> 100	67.8
CC(C)(C)OC(=O)C#CC[C@H]1CCCC1/C=C/C(O)=C1/C(=O)NC(CCCNC(=O)OC(C)(C)C)C1=O (some centres not stated)	53.8	> 100	57.6	> 100	> 100	61.3	84.5	–	> 100	75.3
CCOC(=O)C1=C(C)N(Cc2ccccc2)C(C)=C(C(=O)OCC)C1c1ccccc1O	71	> 100	73.2	54.9	91.4	43.8	> 100	–	> 100	> 100
N#C/C(=C1\OC(=O)C(c2ccc(Br)cc2)=C1O)c1ccc(Br)cc1	22.1	23.6	31	55.6	28.9	25.9	36.7	–	35.6	29.5
COc1cccc(NC(=O)CC(=O)N2N=C(N(CCC#N)c3ccc(Cl)cc3)CC2c2ccccc2)c1 (configuration not stated)	> 100	> 100	> 100	> 100	> 100	> 100	> 100	–	> 100	> 100
c1cc(-c2cn3ccsc3n2)ccn1	> 100	> 100	> 100	> 100	> 100	> 100	> 100	–	> 100	> 100
CC(=O)NNc1nc(C)c(C(=O)NNC(=O)C(=O)Nc2ccccc2C#N)s1	> 100	> 100	> 100	> 100	> 100	> 100	> 100	–	> 100	> 100
Cc1ccc(C(=O)O/N=C2/CCC/C2=C\c2ccccc2)cc1	> 100	> 100	> 100	> 100	> 100	> 100	> 100	–	> 100	> 100
CN(C(=O)C12C3C4C5C3C1(C(=O)O)C5C42)C(C)(C)C (configuration not stated)	> 100	> 100	> 100	> 100	> 100	72.6	> 100	–	> 100	> 100
